The values below come from US11795180B2, “Formulation of a pan-JAK inhibitor” (THERAVANCE BIOPHARMA R&D IP, LLC, priority 2020, dated 2023).

One series has as its target JAK1 (Homo sapiens, UniProt P23458). Particulars: cited from earlier work.
The conditions of series [1]: oral dosing, preclinical species; cited from earlier work.
The target in a further series is JAK2 (Homo sapiens, UniProt O60674). To be noted: cited from earlier work.
The conditions of series [2]: cannulated rats; cited from earlier work.
The target of another series is TYK2 (Homo sapiens, UniProt P29597). To be noted: cited from earlier work.
The nature of series [3]: Dissolution profiles of tablets with 3% magnesium stearate (blending process, particle size). Type of series: physicochemical. To be noted: tablet with 3% magnesium stearate, Compound I particles blended with a filler, no pre-blending with hydrophobic colloidal silicon dioxide. As for the experimental part:
[…] The particle size of Compound I was determined by static image analysis.
During manufacturing of certain tablets comprising 0.5-1% magnesium stearate, film formation on tablet punches was observed. The film formed after compression of a few tablets. After extensive investigation, the problem was resolved by increasing the magnesium stearate content in the composition up to 3%. […]
Using this manufacturing procedure, consistently fast dissolution profiles were obtained for different particle sizes of Compound I without leading to the unwanted film formation on tablet punches. Dissolution profiles of tablets manufactured according to this procedure and containing various particle sizes of Compound I are depicted in FIG. 9.

Series [4] deals with oxazolone-induced colitis. As to the kind of experiment: Oxazolone-induced colitis model. It is filed as in vivo. Particulars: mice. An excerpt:
(§1) Oxazolone-induced colitis is an experimental model that has a histological resemblance to human ulcerative colitis.

The next series has as its target T1, JAK3 (Homo sapiens, UniProt P52333).
T1 sequence (P52333 1-1124): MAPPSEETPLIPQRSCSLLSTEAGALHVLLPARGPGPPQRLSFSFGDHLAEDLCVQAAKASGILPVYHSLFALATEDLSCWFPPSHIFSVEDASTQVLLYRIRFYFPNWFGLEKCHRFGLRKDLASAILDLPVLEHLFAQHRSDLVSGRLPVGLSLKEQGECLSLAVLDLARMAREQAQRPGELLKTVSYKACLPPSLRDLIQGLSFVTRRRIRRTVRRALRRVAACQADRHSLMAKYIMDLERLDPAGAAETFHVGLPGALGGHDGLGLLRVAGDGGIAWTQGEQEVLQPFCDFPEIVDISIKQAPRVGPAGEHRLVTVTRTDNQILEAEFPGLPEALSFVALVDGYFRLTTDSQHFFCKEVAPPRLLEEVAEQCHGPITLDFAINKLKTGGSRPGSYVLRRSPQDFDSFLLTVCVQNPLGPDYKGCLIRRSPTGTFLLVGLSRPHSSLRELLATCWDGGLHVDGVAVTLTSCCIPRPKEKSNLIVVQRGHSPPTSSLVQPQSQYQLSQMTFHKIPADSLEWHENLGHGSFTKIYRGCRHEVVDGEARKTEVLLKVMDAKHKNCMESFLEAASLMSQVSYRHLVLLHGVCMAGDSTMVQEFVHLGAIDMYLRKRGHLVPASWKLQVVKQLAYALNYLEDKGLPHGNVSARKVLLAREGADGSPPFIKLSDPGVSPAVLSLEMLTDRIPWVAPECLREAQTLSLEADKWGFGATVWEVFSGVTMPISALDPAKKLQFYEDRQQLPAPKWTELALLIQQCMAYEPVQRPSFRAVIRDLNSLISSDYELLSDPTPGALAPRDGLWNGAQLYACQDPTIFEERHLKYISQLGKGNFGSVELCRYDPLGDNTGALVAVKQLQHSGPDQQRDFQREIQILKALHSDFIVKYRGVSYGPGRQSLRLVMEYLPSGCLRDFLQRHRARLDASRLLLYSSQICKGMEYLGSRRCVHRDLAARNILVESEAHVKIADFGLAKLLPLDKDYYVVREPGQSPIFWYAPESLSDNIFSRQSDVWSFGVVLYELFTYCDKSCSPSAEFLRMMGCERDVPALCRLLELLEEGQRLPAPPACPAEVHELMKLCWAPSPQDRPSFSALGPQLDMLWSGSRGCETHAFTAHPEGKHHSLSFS
Particulars: cited from earlier work.

For the next series, the system named is immunosuppression. Briefly: Immunosuppression model (systemic functional activity). It is filed as in vivo. To be noted: mice, same dose required to demonstrate efficacy in the oxazolone model.
Excerpt: as §1

For series [5] the following is noted: rat; cited from earlier work.
The nature of series [6]: Drug concentration in stool samples of healthy human subjects. Type of series: in vivo. An excerpt:
As described previously in U.S. Pat. No. 9,725,470, the absorption and distribution of Compound I has been extensively profiled in preclinical assays. […] In addition, Compound I is designed to have its effect at the site of action in the gastrointestinal tract.

JAK1, sequence (P23458 whole entry): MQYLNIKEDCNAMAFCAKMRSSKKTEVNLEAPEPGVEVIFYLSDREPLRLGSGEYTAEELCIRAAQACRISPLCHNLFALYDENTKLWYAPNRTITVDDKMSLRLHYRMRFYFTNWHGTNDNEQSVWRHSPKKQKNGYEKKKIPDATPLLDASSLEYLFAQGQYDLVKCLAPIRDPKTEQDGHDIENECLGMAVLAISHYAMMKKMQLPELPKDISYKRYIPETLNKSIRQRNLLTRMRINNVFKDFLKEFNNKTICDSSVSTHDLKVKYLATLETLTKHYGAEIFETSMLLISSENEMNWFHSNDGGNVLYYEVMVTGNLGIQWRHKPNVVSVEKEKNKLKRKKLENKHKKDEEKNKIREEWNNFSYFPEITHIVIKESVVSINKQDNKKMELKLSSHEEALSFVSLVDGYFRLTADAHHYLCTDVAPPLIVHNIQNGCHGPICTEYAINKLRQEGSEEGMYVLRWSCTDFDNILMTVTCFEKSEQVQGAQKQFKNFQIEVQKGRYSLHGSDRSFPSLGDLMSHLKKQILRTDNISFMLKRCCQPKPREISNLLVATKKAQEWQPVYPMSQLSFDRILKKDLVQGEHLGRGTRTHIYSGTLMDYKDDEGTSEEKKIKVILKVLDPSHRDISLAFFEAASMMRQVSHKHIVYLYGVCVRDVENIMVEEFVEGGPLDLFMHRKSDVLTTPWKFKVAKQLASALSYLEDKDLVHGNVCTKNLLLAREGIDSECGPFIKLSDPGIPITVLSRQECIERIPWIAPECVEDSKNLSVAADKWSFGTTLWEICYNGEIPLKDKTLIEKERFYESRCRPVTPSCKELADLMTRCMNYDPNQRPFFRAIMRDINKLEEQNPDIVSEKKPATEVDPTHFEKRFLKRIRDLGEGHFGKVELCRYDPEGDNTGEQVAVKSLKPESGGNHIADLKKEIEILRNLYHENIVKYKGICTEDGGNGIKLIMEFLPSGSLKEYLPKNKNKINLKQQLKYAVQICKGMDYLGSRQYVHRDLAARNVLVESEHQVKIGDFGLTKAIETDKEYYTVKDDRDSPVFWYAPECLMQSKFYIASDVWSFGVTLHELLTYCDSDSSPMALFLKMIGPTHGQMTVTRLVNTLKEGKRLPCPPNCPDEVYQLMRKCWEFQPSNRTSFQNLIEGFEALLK
TYK2, sequence (P29597 whole entry): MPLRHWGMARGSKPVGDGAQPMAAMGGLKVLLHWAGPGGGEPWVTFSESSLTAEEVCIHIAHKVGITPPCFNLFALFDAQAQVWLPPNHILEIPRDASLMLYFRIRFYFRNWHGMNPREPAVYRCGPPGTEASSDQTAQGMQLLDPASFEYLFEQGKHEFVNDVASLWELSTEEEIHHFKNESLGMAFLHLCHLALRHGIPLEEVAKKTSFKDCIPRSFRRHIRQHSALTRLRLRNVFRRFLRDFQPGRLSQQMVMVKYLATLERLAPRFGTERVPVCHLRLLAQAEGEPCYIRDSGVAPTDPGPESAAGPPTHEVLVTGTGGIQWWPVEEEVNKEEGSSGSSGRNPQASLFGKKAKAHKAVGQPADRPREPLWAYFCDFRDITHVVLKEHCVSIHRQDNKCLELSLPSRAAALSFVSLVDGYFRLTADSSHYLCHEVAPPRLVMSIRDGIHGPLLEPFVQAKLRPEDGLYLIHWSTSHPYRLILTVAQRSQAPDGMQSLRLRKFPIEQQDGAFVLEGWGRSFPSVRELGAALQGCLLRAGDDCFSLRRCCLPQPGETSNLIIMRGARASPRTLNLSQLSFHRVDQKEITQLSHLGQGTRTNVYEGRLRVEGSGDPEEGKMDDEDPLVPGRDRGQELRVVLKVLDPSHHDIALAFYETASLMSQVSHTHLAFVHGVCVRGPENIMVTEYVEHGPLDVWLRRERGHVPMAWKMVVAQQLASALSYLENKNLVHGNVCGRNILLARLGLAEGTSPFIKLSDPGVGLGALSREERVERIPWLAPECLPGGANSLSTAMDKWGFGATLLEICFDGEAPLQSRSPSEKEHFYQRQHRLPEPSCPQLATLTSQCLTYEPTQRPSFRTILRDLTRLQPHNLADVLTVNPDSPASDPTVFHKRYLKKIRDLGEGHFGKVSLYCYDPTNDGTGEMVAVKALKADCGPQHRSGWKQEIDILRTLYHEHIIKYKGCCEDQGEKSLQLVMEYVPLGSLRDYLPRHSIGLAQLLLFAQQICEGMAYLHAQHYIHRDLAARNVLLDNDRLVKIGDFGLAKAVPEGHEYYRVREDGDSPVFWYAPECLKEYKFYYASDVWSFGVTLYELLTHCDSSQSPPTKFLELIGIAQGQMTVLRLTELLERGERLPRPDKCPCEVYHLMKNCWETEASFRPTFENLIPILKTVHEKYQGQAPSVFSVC
JAK2, sequence (O60674 whole entry): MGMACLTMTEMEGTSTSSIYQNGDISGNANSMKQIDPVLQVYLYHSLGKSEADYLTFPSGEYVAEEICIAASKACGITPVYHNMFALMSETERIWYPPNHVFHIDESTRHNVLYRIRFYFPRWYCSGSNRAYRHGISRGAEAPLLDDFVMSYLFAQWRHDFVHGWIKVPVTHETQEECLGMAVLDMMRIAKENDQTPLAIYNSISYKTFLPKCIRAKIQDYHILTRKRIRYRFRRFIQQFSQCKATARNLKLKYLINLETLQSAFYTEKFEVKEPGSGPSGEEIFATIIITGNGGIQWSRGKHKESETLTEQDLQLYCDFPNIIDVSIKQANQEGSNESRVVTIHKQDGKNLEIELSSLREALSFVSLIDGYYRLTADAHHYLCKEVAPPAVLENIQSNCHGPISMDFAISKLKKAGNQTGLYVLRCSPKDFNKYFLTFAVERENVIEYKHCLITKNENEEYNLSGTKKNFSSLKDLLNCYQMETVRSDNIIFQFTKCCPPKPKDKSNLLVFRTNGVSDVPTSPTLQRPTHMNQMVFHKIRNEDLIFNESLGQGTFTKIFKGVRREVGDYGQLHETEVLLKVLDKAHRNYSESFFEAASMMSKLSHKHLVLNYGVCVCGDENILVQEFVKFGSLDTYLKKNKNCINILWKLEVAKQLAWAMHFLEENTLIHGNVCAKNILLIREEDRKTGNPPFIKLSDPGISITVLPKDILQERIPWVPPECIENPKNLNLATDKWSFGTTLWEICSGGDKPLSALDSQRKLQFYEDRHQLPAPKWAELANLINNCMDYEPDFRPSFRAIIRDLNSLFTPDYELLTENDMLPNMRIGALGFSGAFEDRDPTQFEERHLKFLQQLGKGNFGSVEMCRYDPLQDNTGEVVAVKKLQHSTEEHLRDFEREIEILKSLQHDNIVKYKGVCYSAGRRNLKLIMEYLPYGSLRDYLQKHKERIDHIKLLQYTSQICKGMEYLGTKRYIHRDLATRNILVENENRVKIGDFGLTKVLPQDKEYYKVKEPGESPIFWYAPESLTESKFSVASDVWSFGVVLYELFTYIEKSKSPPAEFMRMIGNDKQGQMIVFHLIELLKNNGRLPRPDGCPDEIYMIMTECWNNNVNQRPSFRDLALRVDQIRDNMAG

`Cc1cc(Nc2cc3ncccc3c(N[C@@H]3C[C@H]4CC[C@@H](C3)N4CCC#N)n2)n[nH]1` [Compound I, 3-((1R,3s,5S)-3-((7-((5-methyl-1H-pyrazol-3-yl)amino)-1,6-naphthyridin-5-yl)amino)-8-azabicyclo[3.2.1]octan-8-yl)propanenitrile]: the “Inhibition of JAK1” value on JAK1 is on record as “potent inhibitor”. Further, the “Exposure throughout the gastrointestinal tract compared with exposure in plasma” value in series [1] is on record as “significantly higher exposure”. At JAK2, the “Inhibition of JAK2” value was “potent inhibitor”. Besides, in [2], the “Absorption into plasma at the portal vein” value is “low absorption”. Besides, on TYK2, the “Inhibition of TYK2” value is given as “potent inhibitor”. Also, in [3], the “Dissolution rate (FIG. 8)” value was “reduced dissolution rate”. In series [4], the “Activity in the oxazolone-induced colitis model” value is on record as “demonstrated activity”. For the same compound, the “Inhibition of JAK3” value on JAK3 is “potent inhibitor”. In addition, the Effect of immunosuppression result in the series on immunosuppression is “minimal effect of immunosuppression”. The “Ratio of exposure in the colon to exposure in plasma” value in series [5] is listed as “greater than 450”. The “Drug concentration in stool samples” value in series [6] is given as “high drug concentration”.
